According to PubChem BioAssay AID256 (DTP/NCI, 2004):
Where “and” joins values, the source holds several entries; their conditions need not be identical. Equal entries are not always repeated. Inconclusive results and toxic doses are left out.

System: CD2F1 mice, L1210 leukemia ip, survival T/C
Assay: NCI In Vivo Anticancer Drug Screen. Data for tumor model L1210 Leukemia (intraperitoneal) in CD2F1 (CDF1) mice
Settings: higher = longer survival
Procedure, shortened: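 Compound-dosed mice with transplantable tumor versus matched vehicle controls; endpoint ratio T/C reported.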

[1] = endpoint: mean survival time, dose: 100.0 mg/kg/injection, schedule: Q01DX001 (ip), vehicle: saline
[2] = endpoint: mean survival time, dose: 200.0 mg/kg/injection, schedule: Q01DX001 (ip), vehicle: saline
[3] = endpoint: mean survival time, dose: 400.0 mg/kg/injection, schedule: Q01DX001 (ip), vehicle: saline
[4] = endpoint: mean survival time, dose: 100.0 mg/kg/injection, schedule: Q01DX009 (ip), vehicle: saline with Tween-80
[5] = endpoint: mean survival time, dose: 100.0 mg/kg/injection, schedule: Q04DX003 (ip), vehicle: saline with Tween-80
[6] = endpoint: mean survival time, dose: 200.0 mg/kg/injection, schedule: Q01DX009 (ip), vehicle: saline with Tween-80
[7] = endpoint: mean survival time, dose: 200.0 mg/kg/injection, schedule: Q04DX003 (ip), vehicle: saline with Tween-80
[8] = endpoint: mean survival time, dose: 400.0 mg/kg/injection, schedule: Q04DX003 (ip), vehicle: saline with Tween-80
[9] = endpoint: mean survival time, dose: 12.5 mg/kg/injection, schedule: Q01DX009 (ip), vehicle: water
[10] = endpoint: mean survival time, dose: 25.0 mg/kg/injection, schedule: Q01DX009 (ip), vehicle: water
[11] = endpoint: mean survival time, dose: 50.0 mg/kg/injection, schedule: Q01DX009 (ip), vehicle: water
[12] = endpoint: mean survival time, dose: 100.0 mg/kg/injection, schedule: Q01DX009 (ip), vehicle: water

SMILES: CN1CCN(CN2C(=O)C3C4C=CC(C3C2=O)C2C3C(=O)N(CN5CCN(C)CC5)C(=O)C3C42)CC1 (centres undefined)
- T/C (endpoint: median survival time, dose: 7.2 mg/kg/injection, schedule: Q03HX027 (ip), vehicle: water): 106 % of control
- T/C (endpoint: median survival time, dose: 8.3 mg/kg/injection, schedule: Q03HX027 (ip), vehicle: water): 104 % of control
- T/C (endpoint: median survival time, dose: 12.0 mg/kg/injection, schedule: Q03HX027 (ip), vehicle: water): 114 % of control
- T/C (endpoint: median survival time, dose: 16.1 mg/kg/injection, schedule: Q01DX009 (ip), vehicle: water): 108 % of control
- T/C (endpoint: median survival time, dose: 24.8 mg/kg/injection, schedule: Q01DX009 (ip), vehicle: water): 102 % of control and 105 % of control and 109 % of control
- T/C (endpoint: median survival time, dose: 26.8 mg/kg/injection, schedule: Q01DX009 (ip), vehicle: water): 105 % of control
- T/C (endpoint: median survival time, dose: 33.4 mg/kg/injection, schedule: Q03HX027 (ip), vehicle: water): 172 % of control
- T/C (endpoint: median survival time, dose: 38.4 mg/kg/injection, schedule: Q03HX027 (ip), vehicle: water): 114 % of control
- T/C (endpoint: median survival time, dose: 41.3 mg/kg/injection, schedule: Q01DX009 (ip), vehicle: water): 124 % of control
- T/C (endpoint: median survival time, dose: 44.6 mg/kg/injection, schedule: Q01DX009 (ip), vehicle: water): 152 % of control
- T/C (endpoint: median survival time, dose: 55.7 mg/kg/injection, schedule: Q03HX027 (ip), vehicle: water): 103 % of control
- T/C (endpoint: median survival time, dose: 68.8 mg/kg/injection, schedule: Q01DX009 (ip), vehicle: water): 178 % of control and 183 % of control and 219 % of control
- T/C (endpoint: median survival time, dose: 74.4 mg/kg/injection, schedule: Q01DX009 (ip), vehicle: water): 255 % of control
- T/C (endpoint: median survival time, dose: 114.7 mg/kg/injection, schedule: Q01DX009 (ip), vehicle: water): 210 % of control and 243 % of control and 103 % of control

SMILES: CC(=O)OC1COC(n2cnc3c(=O)[nH]cnc32)C(OC(C)=O)C1OC(C)=O (centres undefined)
- T/C (endpoint: mean survival time, dose: 12.5 mg/kg/injection, schedule: Q01DX001 (ip), vehicle: saline): 100 % of control and 109 % of control
- T/C (endpoint: mean survival time, dose: 25.0 mg/kg/injection, schedule: Q01DX001 (ip), vehicle: saline): 100 % of control and 106 % of control
- T/C (endpoint: mean survival time, dose: 50.0 mg/kg/injection, schedule: Q01DX001 (ip), vehicle: saline): 118 % of control and 103 % of control
- T/C [1]: 97 % of control and 106 % of control

SMILES: NC(CC(=O)c1ccccc1)C(=O)O (centres undefined)
- T/C [1]: 98 % of control
- T/C [2]: 93 % of control
- T/C [3]: 90 % of control

SMILES: CC1CN=C(c2ccc(Br)cc2)O1 (centres undefined)
- T/C (endpoint: mean survival time, dose: 100.0 mg/kg/injection, schedule: Q04DX003 (ip), vehicle: saline): 103 % of control
- T/C (endpoint: mean survival time, dose: 200.0 mg/kg/injection, schedule: Q04DX003 (ip), vehicle: saline): 96 % of control
- T/C (endpoint: mean survival time, dose: 400.0 mg/kg/injection, schedule: Q04DX003 (ip), vehicle: saline): 103 % of control

SMILES: COC(=O)c1ccccc1NCC(O)C(O)C(O)CO (centres undefined)
- T/C [1]: 98 % of control
- T/C [2]: 101 % of control
- T/C [3]: 86 % of control

SMILES: C1=CC(=P(c2ccccc2)(c2ccccc2)c2ccccc2)C=C1
- T/C [4]: 98 % of control
- T/C [5]: 94 % of control
- T/C [6]: 100 % of control
- T/C [7]: 95 % of control
- T/C (endpoint: mean survival time, dose: 240.0 mg/kg/injection, schedule: Q01DX015 (ip), vehicle: saline): 87 % of control
- T/C (endpoint: mean survival time, dose: 400.0 mg/kg/injection, schedule: Q01DX009 (ip), vehicle: saline with Tween-80): 94 % of control
- T/C [8]: 94 % of control
- T/C (endpoint: mean survival time, dose: 480.0 mg/kg/injection, schedule: Q01DX015 (ip), vehicle: saline): 87 % of control
- T/C (endpoint: mean survival time, dose: 960.0 mg/kg/injection, schedule: Q01DX015 (ip), vehicle: saline): 92 % of control

SMILES: C1CNCCNCCNCCN1
- T/C [9]: 100 % of control
- T/C [10]: 100 % of control
- T/C [11]: 96 % of control
- T/C [12]: 94 % of control

SMILES: CC(=O)Nc1ncc2ccccc2c1-c1ccc(NC(=O)CCCl)cc1
- T/C (endpoint: mean survival time, dose: 25.0 mg/kg/injection, schedule: Q04DX003 (ip), vehicle: DMSO): 101 % of control
- T/C (endpoint: mean survival time, dose: 50.0 mg/kg/injection, schedule: Q04DX003 (ip), vehicle: DMSO): 96 % of control
- T/C (endpoint: mean survival time, dose: 100.0 mg/kg/injection, schedule: Q04DX003 (ip), vehicle: DMSO): 94 % of control
- T/C (endpoint: mean survival time, dose: 200.0 mg/kg/injection, schedule: Q04DX003 (ip), vehicle: DMSO): 91 % of control
- T/C (endpoint: mean survival time, dose: 400.0 mg/kg/injection, schedule: Q04DX003 (ip), vehicle: DMSO): 94 % of control

SMILES: O=C(O)c1nnc(C(=O)O)nn1
- T/C [9]: 100 % of control
- T/C [10]: 100 % of control
- T/C [11]: 95 % of control
- T/C [12]: 94 % of control

SMILES: CCCCC(CC)(CO)C(=O)NN (centres undefined)
- T/C [5]: 97 % of control
- T/C [7]: 100 % of control
- T/C [8]: 97 % of control

SMILES: Nc1ncnc2c1ncn2C1OC(C[Se](=O)c2ccccc2)C(O)C1O (centres undefined)
- T/C (endpoint: median survival time, dose: 12.5 mg/kg/injection, schedule: Q01DX005 (ip), vehicle: Klucel (hydroxypropylcellulose) (HPC)): 102 % of control
- T/C (endpoint: median survival time, dose: 25.0 mg/kg/injection, schedule: Q01DX005 (ip), vehicle: Klucel (hydroxypropylcellulose) (HPC)): 106 % of control
- T/C (endpoint: median survival time, dose: 50.0 mg/kg/injection, schedule: Q01DX005 (ip), vehicle: Klucel (hydroxypropylcellulose) (HPC)): 103 % of control
- T/C (endpoint: median survival time, dose: 100.0 mg/kg/injection, schedule: Q01DX005 (ip), vehicle: Klucel (hydroxypropylcellulose) (HPC)): 103 % of control
- T/C (endpoint: median survival time, dose: 200.0 mg/kg/injection, schedule: Q01DX005 (ip), vehicle: Klucel (hydroxypropylcellulose) (HPC)): 104 % of control

SMILES: CCOC(=O)CCC(NC(=O)c1ccc(NCc2ccc3nc(N)nc(N)c3c2C)cc1)C(=O)OCC (centres undefined)
- T/C (endpoint: mean survival time, dose: 0.01 mg/kg/injection, schedule: Q01DX009 (ip), vehicle: saline + alcohol): 104 % of control
- T/C (endpoint: mean survival time, dose: 0.02 mg/kg/injection, schedule: Q01DX009 (ip), vehicle: saline + alcohol): 116 % of control
- T/C (endpoint: mean survival time, dose: 0.03 mg/kg/injection, schedule: Q01DX009 (ip), vehicle: saline + alcohol): 113 % of control
- T/C (endpoint: mean survival time, dose: 0.06 mg/kg/injection, schedule: Q01DX001 (ip), vehicle: saline + alcohol): 98 % of control and 101 % of control
- T/C (endpoint: mean survival time, dose: 0.06 mg/kg/injection, schedule: Q01DX009 (ip), vehicle: saline + alcohol): 113 % of control
- T/C (endpoint: mean survival time, dose: 0.11 mg/kg/injection, schedule: Q01DX009 (ip), vehicle: saline + alcohol): 110 % of control
- T/C (endpoint: mean survival time, dose: 0.12 mg/kg/injection, schedule: Q01DX001 (ip), vehicle: saline + alcohol): 112 % of control
- T/C (endpoint: mean survival time, dose: 0.13 mg/kg/injection, schedule: Q01DX001 (ip), vehicle: saline + alcohol): 104 % of control
- T/C (endpoint: mean survival time, dose: 0.25 mg/kg/injection, schedule: Q01DX001 (ip), vehicle: saline + alcohol): 121 % of control and 111 % of control
- T/C (endpoint: mean survival time, dose: 1.0 mg/kg/injection, schedule: Q01DX001 (ip), vehicle: saline + alcohol): 122 % of control

SMILES: Nc1ncnc2sc3c(c12)CCCC3
- T/C (endpoint: mean survival time, dose: 50.0 mg/kg/injection, schedule: Q04DX003 (ip), vehicle: Klucel (hydroxypropylcellulose) (HPC)): 96 % of control
- T/C (endpoint: mean survival time, dose: 100.0 mg/kg/injection, schedule: Q04DX003 (ip), vehicle: Klucel (hydroxypropylcellulose) (HPC)): 100 % of control
- T/C (endpoint: mean survival time, dose: 200.0 mg/kg/injection, schedule: Q04DX003 (ip), vehicle: Klucel (hydroxypropylcellulose) (HPC)): 91 % of control

SMILES: Nc1cc2[nH]cnc2c([Se])n1
- T/C [5]: 101 % of control
- T/C [7]: 107 % of control

SMILES: CCCCOc1ccc(/C=N\N=C\c2ccc(OCCCC)cc2)cc1
- T/C [5]: 88 % of control
- T/C [7]: 91 % of control
- T/C [8]: 86 % of control

SMILES: CCCCSc1ncn(C)c1[N+](=O)[O-]
- T/C (endpoint: mean survival time, dose: 50.0 mg/kg/injection, schedule: Q01DX001 (ip), vehicle: saline with Tween-80): 101 % of control
- T/C (endpoint: mean survival time, dose: 100.0 mg/kg/injection, schedule: Q01DX001 (ip), vehicle: saline with Tween-80): 103 % of control
- T/C (endpoint: mean survival time, dose: 200.0 mg/kg/injection, schedule: Q01DX001 (ip), vehicle: saline with Tween-80): 101 % of control

SMILES: COc1cc(Cl)ccc1NC(=O)OCCOc1ccc(C(C)(C)C)cc1
- T/C (endpoint: mean survival time, dose: 50.0 mg/kg/injection, schedule: Q01DX009 (ip), vehicle: saline with Tween-80): 103 % of control
- T/C [4]: 95 % of control
- T/C [6]: 95 % of control

SMILES: Cc1noc(C)c1CC1(c2ccccc2)CCCCC1=O (centres undefined)
- T/C (endpoint: mean survival time, dose: 100.0 mg/kg/injection, schedule: Q01DX001 (ip), vehicle: Klucel (hydroxypropylcellulose) (HPC)): 92 % of control
- T/C (endpoint: mean survival time, dose: 200.0 mg/kg/injection, schedule: Q01DX001 (ip), vehicle: Klucel (hydroxypropylcellulose) (HPC)): 92 % of control
- T/C (endpoint: mean survival time, dose: 400.0 mg/kg/injection, schedule: Q01DX001 (ip), vehicle: Klucel (hydroxypropylcellulose) (HPC)): 86 % of control

SMILES: CCCOC(=O)COc1ccc(F)cc1
- T/C (endpoint: mean survival time, dose: 100.0 mg/kg/injection, schedule: Q04DX002 (ip), vehicle: saline with Tween-80): 97 % of control
- T/C (endpoint: mean survival time, dose: 200.0 mg/kg/injection, schedule: Q04DX002 (ip), vehicle: saline with Tween-80): 101 % of control
- T/C (endpoint: mean survival time, dose: 400.0 mg/kg/injection, schedule: Q04DX002 (ip), vehicle: saline with Tween-80): 97 % of control

SMILES: NC(=O)c1cn(C2OC(CO)C(O)C2O)nc1N (centres undefined)
- T/C (endpoint: mean survival time, dose: 100.0 mg/kg/injection, schedule: Q01DX005 (ip), vehicle: saline): 100 % of control
- T/C (endpoint: mean survival time, dose: 200.0 mg/kg/injection, schedule: Q01DX005 (ip), vehicle: saline): 105 % of control
